# Source: patent US6043045A, “Screening methods for the identification of novel antibiotics” (The Scripps Research Institute, priority 1998, dated 2000)
# “Also recorded” adds a separate entry of the source.
# B1: KinA (histidine protein kinase) (Bacillus subtilis subsp. subtilis str. 168) (protein)
# chain: MEQDTQHVKPLQTKTDIHAVLASNGRIIYISANSKLHLGYLQGEMIGSFLKTFLHEEDQFLVESYFYNEHHLMPCTFRFIKKDHTIVWVEAAVEIVTTRAERTEREIILKMKVLEEETGHQSLNCEKHEIEPASPESTTYITDDYERLVENLPSPLCISVKGKIVYVNSAMLSMLGAKSKDAIIGKSSYEFIEEEYHDIVKNRIIRMQKGMEVGMIEQTWKRLDGTPVHLEVKASPTVYKNQQAELLLLIDISSRKKFQTILQKSRERYQLLIQNSIDTIAVIHNGKWVFMNESGISLFEAATYEDLIGKNIYDQLHPCDHEDVKERIQNIAEQKTESEIVKQSWFTFQNRVIYTEMVCIPTTFFGEAAVQVILRDISERKQTEELMLKSEKLSIAGQLAAGIAHEIRNPLTAIKGFLQLMKPTMEGNEHYFDIVFSELSRIELILSELLMLAKPQQNAVKEYLNLKKLIGEVSALLETQANLNGIFIRTSYEKDSIYINGDQNQLKQVFINLIKNAVESMPDGGTVDIIITEDEHSVHVTVKDEGEGIPEKVLNRIGEPFLTTKEKGTGLGLMVTFNIIENHQGVIHVDSHPEKGTAFKISFPKK
# notes: made in house; host or cells: E. coli (printed "E. coil")
# B2: KinA (Bacillus subtilis subsp. subtilis str. 168) (protein)
# chain: B1 chain
# notes: made in house
# Columns and labels:
# KinA [1] = molecular target: T1, KinA (Bacillus subtilis, UniProt P16497); assay: KinA autophosphorylation assay at higher KinA concentration and ATP competition series; format: biochemical
# T1 construct: made in house
# T1 sequence (P16497 1-606): B1 chain
# Method: (§1) The above-noted experiments were performed using a KinA concentration of […]. At this concentration, a band corresponding to KinA~P was not visible on the autoradiographs. Therefore, it could not be determined if the inhibition occurred at the KinA autophosphorylation step or at the phosphotransferase reaction between KinA~P and SpoOF. To address this question, assays were performed using a higher KinA concentration (1×10^-6 M). The prevention of stable autophosphorylation of KinA by oleic acid was confirmed. Data was gathered which verified the incorporation of ^32 P from [γ^32 P]ATP into the KinA protein in the presence of SpoOF and differing concentrations of oleic acid (not shown). The assay was performed as disclosed hereinabove, except that the KinA concentration was increased to 1×10^-6 M and the incubation time was shortened to three minutes.
# (§2) To determine the nature of the fatty acid inhibition of autophosphorylation, three series of reactions were performed. In the first series, no oleic acid was present; the second contained 2.5×10^-5 M oleic acid; the third contained 7.0×10^-5 M oleic acid. […] Even at the lowest oleic acid concentration (2.5×10^-5 M) and highest ATP level (2×10^-3 M), the KinA was greater than 95% inhibited.
# KinA [2] = molecular target: T1, KinA; assay: biochemical; format: biochemical
# Method: The reactions were performed in a 25 μl final volume containing 100 mM Tris pH 8.0, 100 mM KCl, 2 mM MgCl2, 0.5 mM dithiothreitol, 10% (v/v) glycerol, 0.1 % (w/v) gelatin, 4% (v/v) ethanol, 200 μM total ATP containing approximately 1.5 μCi [gamma-^32 P]ATP (New England Nuclear, 6000 Ci/mMol, 150 μCi/ml), 300 μM SpoOF protein and 0.04 μM KinA protein (Perego, et al., J. Bacteriol. 171: 6187-6196 (1989)) unless otherwise indicated. Fatty acids were added to varying final concentration from solutions made with 100% ethanol (the 4% ethanol concentration in the reaction mixture reflects these addition, or in the case of controls, the addition of ethanol alone). The reactions were initiated by addition of the ATP and incubated for thirty minutes at room temperature.
# When higher KinA concentrations were used, the time of incubation was adjusted accordingly. The reactions were stopped by adding an equal volume of loading dye (0.25 M Tris pH 6.8, 20% (v/v) glycerol, 1% sodium dodecyl sulfate (w/v), 140 mM β-mercaptoethanol, 0.05% (w/v) bromophenol blue) and aliquots were loaded onto polyacrylamide gels (5% stacking, 15% separating, using the buffer system of Laemmi, Id., 1970).
# The gels were run for approximately 16 hours at 10 mA constant current. The gels were covered with plastic wrap and subjected to autoradiography using Kodak XOmat RP1 film. Quantitation of activity was accomplished by cutting gels slices containing the appropriate phosphoprotein (usually SpoOF~P, see Section E below) and counting the Cerenkov radiation in a Beckman LF7500 scintillation counter (Beckman Instruments, Fullerton, Calif.). Equal-sized slices from blank areas of the gels were also counted and used to adjust for background. Percentage of activity was calculated using the value of the control reaction as 100%.
# To quantify our initial assessment of inhibitory properties, the I0.5 values (at 4×10^-8 M KinA) were determined for each of the fatty acids. […] For example, the percent activity at an indicated oleic acid concentration is the ratio (×100) of the incorporation of ^32 P (from [γ^32 P]ATP) into the SpoOF protein relative to the incorporation in the control reaction containing no inhibitor. Typically, data are gathered from at least two different experiments. The I0.5 value is the concentration--e.g., the oleic acid concentration--corresponding to 50% activity as determined from the relevant graph.
# KinA [3] = molecular target: T1, KinA; assay: Test whether fatty acids serve as substrate for KinA-catalyzed phosphorylation (heptane partition); format: biochemical; conditions: KinA 2 μM, no SpoOF, radioactivity in organic phase
# Method: To determine if fatty acids served as a substrate for KinA-catalyzed phosphorylation, the following method was used. The above reaction conditions were employed except that no SpoOF was present; the KinA was at 2 μM and the reactions incubated for 5 minutes prior to the addition of fatty acids. After this initial incubation, to allow autophosphorylation to occur, 48 μl aliquots were added to tubes containing (a) two μl ethanol; (b) 2 μl of 2% oleic acid; and (c) 2 μl of 2% palmitic acid. The reactions were allowed to incubate 10 minutes after which time 0.5 ml H2 O and 0.5 ml heptane were added to each. After 10 minutes at room temperature, the phases were separated by centrifugation. The aqueous phases were washed with H2 O-saturated heptane and the heptane phases washed with heptane-saturated H2 O. The Cerenkov radiation in each phase and wash was determined.
# Oleic acid was added to a reaction mixture containing KinA~[^32 P], and after a suitable incubation, the mixture was separated into organic and aqueous phases (as described above). Under the conditions used, fatty acid species would partition into the organic phase leaving the KinA~P and unincorporated [γ^32 P]ATP in the aqueous phase. The amount of radioactivity in the organic phase containing oleic acid was negligible and no different from the amount present in the control reactions (data not shown).
# KinA~P = molecular target: T2, KinA~P (Bacillus subtilis, UniProt P16497); assay: Dephosphorylation of preformed KinA~P; format: biochemical; conditions: oleic acid 2.5×10^-4M, no SpoOF
# T2 construct: made in house
# Method: Next, the ability of oleic acid to enhance the dephosphorylation of preformed KinA~P was investigated. Autophosphorylation of in the presence of [γ^32 P]ATP was allowed to proceed for 60 minutes in the absence of SpoOF. At the end of this incubation, the reaction was divided into two aliquots, one receiving oleic acid to a final concentration of 2.5×10^-4M. Samples from each were withdrawn at timed intervals, fractionated on polyacrylamide gels, the KinA bands excised and the incorporated radioactivity determined.
# [4] = substrate: Nc1ncnc2c1ncn2[C@@H]1O[C@H](COP(=O)(O)OP(=O)(O)OP(=O)(O)O)[C@@H](O)[C@H]1O; assay: Phosphorylation of His-SpoOF immobilized on Ni-resin by KinA (high throughput assay); format: biochemical, Bacillus subtilis; conditions: 1 μM KinA, 22° C., 20 min
# Method: Phosphorylation of immobilized His-SpoOF was carried out using the MultiScreen 96-well filtration plate (0.65 μm, type DVPP) from Millipore (Bedford, Mass.). The removal of liquid from the wells of the filtration plate was done with the vacuum manifold from Millipore. The His-SpoOF resin (25%, v/v) was placed into individual wells of the filtration plate and washed twice with 200 μl buffer A. A total volume of 80 μl of buffer A containing the indicated amounts of KinA, ATP, and [γ-^32 P]ATP was added to the wells.
# The plate was then incubated for the indicated period of time at 22° C. with gentle shaking. The reaction was terminated by removal of the reaction mixture from the wells followed by three washes of the resin with buffer A.
# The resin was then washed three times with buffer A containing 30 mM imidazole with 5 min. incubation/shaking and another three times with buffer A only. […]
# For analysis by scintillation counting, 80 μl of 0.2 N HCl was added to each of the wells and the plate was incubated at 55° C. with gentle shaking for 1 hour. […] To each of the wells of the MicroFluor plate, 150 μl of MicroScint-40 (Packard, Meriden, Conn.) was added and the radioactivity was counted using the TopCount from Packard. […]
# [5] = substrate: Nc1ncnc2c1ncn2[C@@H]1O[C@H](COP(=O)(O)OP(=O)(O)OP(=O)(O)O)[C@@H](O)[C@H]1O; assay: KinA autophosphorylation assay at higher KinA concentration and ATP competition series; format: biochemical, Bacillus subtilis; conditions: other: KinA
# Method: as §1, §2
molecule,measurement,setting,value
CCCCCCCC/C=C\CCCCCCCC(=O)O [cis-9-octadecanoic],inhibition of KinA,"KinA [1]; 2.5×10^-5 M oleic acid, highest ATP level 2×10^-3 M",greater than 95%
same,competition of inhibition with ATP,"KinA [1]; ATP 2×10^-5 to 2×10^-3 M, oleic acid 2.5×10^-5 and 7.0×10^-5 M",ATP is not competitive with oleic acid inhibition
same,phosphotransfer from KinA~P to SpoOF,KinA [1]; KinA 1×10^-6 M,can also inhibit the phosphotransfer from KinA~P to SpoOF
same,formation of KinA~P and SpoOF~P,"KinA [1]; KinA 1×10^-6 M, 3 min, differing oleic acid concentrations",inhibits the formation of KinA~P and SpoOF~P in a concentration-dependent fashion; also recorded: acts to inhibit the autophosphorylation of KinA
same,inhibitory effect on KinA in vitro (in words),KinA [2],potent inhibitors
same,IC50,"KinA [2]; Table 4, I0.5 at 4×10^-8 M KinA, 32P incorporation into SpoOF, read-out: Fatty Acid Inhibitors of KinA Activity (category by I0.5)",< 70 µM
same,inhibition of KinA phosphorylation of SpoOF (in words),KinA [2]; tested at 0.08% final concentration,essentially complete inhibition
same,substrate for KinA catalyzed phosphorylation,KinA [3],did not serve as a substrate
same,loss of 32P from preformed KinA~P versus reaction without oleic acid,KinA~P,no significant difference
B1,Km,[4]; other: SDS-PAGE analysis,72 µM
same,Km,[4]; other: scintillation counting,70 µM
B2,Km,[5],130 µM
